Our source for the relative viability values is the supplement of paper PMC10307832.

Common to all, as to assay: relative viability (nuclei count vs DMSO), 5 days (fraction); higher = more cells survive
Compound in the test “Tosedostat + Bortezomib”: CC(C)C[C@@H](C(=O)N[C@H](C(=O)OC1CCCC1)c1ccccc1)[C@H](O)C(=O)NO [Tosedostat] + CC(C)C[C@H](NC(=O)[C@H](Cc1ccccc1)NC(=O)c1cnccn1)B(O)O [Bortezomib] (partner 0.002 µM)
The essentials: (§1)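 Values are medians from duplicate plates. Each reflects relative viability, defined as the nuclei count of treated wells over that of vehicle wells. Lung cancer cell lines in 1536-well plates were pin-tool dosed one day after seeding with one drug alone or with a fixed anchor-drug dose plus five library-drug doses (not always all listed) in √10 steps, then fixed, stained and imaged at 4× after 5 days.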

Compound in the test “Tosedostat + Pictilisib”: CC(C)C[C@@H](C(=O)N[C@H](C(=O)OC1CCCC1)c1ccccc1)[C@H](O)C(=O)NO [Tosedostat] + CS(=O)(=O)N1CCN(Cc2cc3nc(-c4cccc5[nH]ncc45)nc(N4CCOCC4)c3s2)CC1 [Pictilisib] (partner 1 µM)
The essentials: as §1

Compound in the test “Tosedostat + Olaparib”: CC(C)C[C@@H](C(=O)N[C@H](C(=O)OC1CCCC1)c1ccccc1)[C@H](O)C(=O)NO [Tosedostat] + O=C(c1cc(Cc2n[nH]c(=O)c3ccccc23)ccc1F)N1CCN(C(=O)C2CC2)CC1 [Olaparib] (partner 8 µM)
A digest of the protocol:
as §1

Compound in test [1]: CC1=NN=C(O1)C2=NN=C(C=C2)N3CCC(CC3)OC4=C(C=CC(=C4)F)Cl + Cc1nc(Nc2ncc(C(=O)Nc3c(C)cccc3Cl)s2)cc(N2CCN(CCO)CC2)n1 [Dasatinib] (partner 0.075 µM)
A digest of the protocol: as §1

NCI-H1437: the relative viability stood at 0.465 in the test with Tosedostat + Bortezomib (first compound 0.02 µM); 0.512 with Tosedostat + Bortezomib (first compound 0.06325 µM); 0.488 in the test with Tosedostat + Bortezomib (first compound 0.2 µM); 0.524 in the test with Tosedostat + Bortezomib (first compound 0.6325 µM); 0.324 with Tosedostat + Bortezomib (first compound 2 µM); 0.407 with Tosedostat + Pictilisib (first compound 0.02 µM). Further, the relative viability was found to be 0.448 with Tosedostat + Pictilisib (first compound 0.06325 µM); 0.277 in the test with Tosedostat + Pictilisib (first compound 0.2 µM); 0.232 in the test with Tosedostat + Pictilisib (first compound 0.6325 µM); 0.256 in the test with Tosedostat + Pictilisib (first compound 2 µM); 0.641 with Tosedostat + Olaparib (first compound 0.02 µM); 0.615 with Tosedostat + Olaparib (first compound 0.06325 µM). In addition, the relative viability in the test with Tosedostat + Olaparib (first compound 0.2 µM) is 0.659; in the test with Tosedostat + Olaparib (first compound 0.6325 µM) it was 0.596; with Tosedostat + Olaparib (first compound 2 µM), 0.604; in test [1] (first compound 0.253 µM), 0.584; in test [1] (first compound 0.8 µM) it was 0.279; in test [1] (first compound 2.53 µM) it was 0.418. Further, the relative viability in test [1] (first compound 8 µM) amounted to 0.268.

Consider NCI-H1650, for which the relative viability with Tosedostat + Bortezomib (first compound 0.02 µM) was found to be 0.207; with Tosedostat + Bortezomib (first compound 0.06325 µM), 0.182; with Tosedostat + Bortezomib (first compound 0.2 µM), 0.228; with Tosedostat + Bortezomib (first compound 0.6325 µM), 0.197; with Tosedostat + Bortezomib (first compound 2 µM), 0.192; with Tosedostat + Pictilisib (first compound 0.02 µM), 0.696. Besides, the relative viability with Tosedostat + Pictilisib (first compound 0.06325 µM) is 0.599; in the test with Tosedostat + Pictilisib (first compound 0.2 µM), 0.652; with Tosedostat + Pictilisib (first compound 0.6325 µM), 0.645; with Tosedostat + Pictilisib (first compound 2 µM) it was 0.558; in the test with Tosedostat + Olaparib (first compound 0.02 µM) it was 0.768; in the test with Tosedostat + Olaparib (first compound 0.06325 µM), 0.732. In addition, the relative viability in the test with Tosedostat + Olaparib (first compound 0.2 µM) came out at 0.754; with Tosedostat + Olaparib (first compound 0.6325 µM), 0.515; with Tosedostat + Olaparib (first compound 2 µM) it was 0.594; in test [1] (first compound 0.8 µM), 0.342; in test [1] (first compound 2.53 µM), 0.335; in test [1] (first compound 8 µM), 0.28.

In the case of NCI-H1651, the relative viability was 0.973 in the test with Tosedostat + Bortezomib (first compound 0.02 µM); 1.03 with Tosedostat + Bortezomib (first compound 0.06325 µM); 0.834 with Tosedostat + Bortezomib (first compound 0.2 µM); 0.834 in the test with Tosedostat + Bortezomib (first compound 0.6325 µM); 0.914 with Tosedostat + Bortezomib (first compound 2 µM); 0.729 with Tosedostat + Pictilisib (first compound 0.02 µM). Moreover, the relative viability was determined as 0.64 with Tosedostat + Pictilisib (first compound 0.06325 µM); 0.503 with Tosedostat + Pictilisib (first compound 0.2 µM); 0.55 in the test with Tosedostat + Pictilisib (first compound 0.6325 µM); 0.451 with Tosedostat + Pictilisib (first compound 2 µM); 0.201 with Tosedostat + Olaparib (first compound 0.02 µM); 0.203 with Tosedostat + Olaparib (first compound 0.06325 µM). In addition, the relative viability in the test with Tosedostat + Olaparib (first compound 0.2 µM) is 0.168; with Tosedostat + Olaparib (first compound 0.6325 µM), 0.156; with Tosedostat + Olaparib (first compound 2 µM) it was 0.141; in test [1] (first compound 0.253 µM) it was 0.406; in test [1] (first compound 0.8 µM), 0.394; in test [1] (first compound 2.53 µM), 0.335. Besides, in test [1] (first compound 8 µM), the relative viability amounted to 0.374.

For NCI-H1666, the relative viability is 0.753 with Tosedostat + Bortezomib (first compound 0.02 µM); 0.849 with Tosedostat + Bortezomib (first compound 0.06325 µM); 0.766 with Tosedostat + Bortezomib (first compound 0.2 µM); 0.735 with Tosedostat + Bortezomib (first compound 0.6325 µM); 0.698 with Tosedostat + Bortezomib (first compound 2 µM); 0.603 with Tosedostat + Pictilisib (first compound 0.02 µM). Further, the relative viability with Tosedostat + Pictilisib (first compound 0.06325 µM) was 0.404; with Tosedostat + Pictilisib (first compound 0.2 µM), 0.5; in the test with Tosedostat + Pictilisib (first compound 0.6325 µM), 0.367; with Tosedostat + Pictilisib (first compound 2 µM), 0.291; with Tosedostat + Olaparib (first compound 0.02 µM) it was 0.726; in the test with Tosedostat + Olaparib (first compound 0.06325 µM) it was 0.732. In addition, the relative viability was determined as 0.72 in the test with Tosedostat + Olaparib (first compound 0.2 µM); 0.638 with Tosedostat + Olaparib (first compound 0.6325 µM); 0.777 with Tosedostat + Olaparib (first compound 2 µM); 0.612 in test [1] (first compound 0.253 µM); 0.526 in test [1] (first compound 0.8 µM); 0.58 in test [1] (first compound 2.53 µM). In addition, in test [1] (first compound 8 µM), the relative viability came to 0.543.

As to NCI-H1734, the relative viability in the test with Tosedostat + Bortezomib (first compound 0.02 µM) came out at 1.07; with Tosedostat + Bortezomib (first compound 0.06325 µM), 0.942; in the test with Tosedostat + Bortezomib (first compound 0.2 µM) it was 0.907; in the test with Tosedostat + Bortezomib (first compound 0.6325 µM), 0.89; with Tosedostat + Bortezomib (first compound 2 µM) it was 0.786; in the test with Tosedostat + Pictilisib (first compound 0.02 µM), 0.471. Also, the relative viability stood at 0.468 in the test with Tosedostat + Pictilisib (first compound 0.06325 µM); 0.444 with Tosedostat + Pictilisib (first compound 0.2 µM); 0.459 in the test with Tosedostat + Pictilisib (first compound 0.6325 µM); 0.433 in the test with Tosedostat + Pictilisib (first compound 2 µM); 0.651 in the test with Tosedostat + Olaparib (first compound 0.02 µM); 0.505 in the test with Tosedostat + Olaparib (first compound 0.06325 µM). In addition, the relative viability was found to be 0.577 with Tosedostat + Olaparib (first compound 0.2 µM); 0.431 in the test with Tosedostat + Olaparib (first compound 0.6325 µM); 0.536 with Tosedostat + Olaparib (first compound 2 µM); 0.496 in test [1] (first compound 0.253 µM); 0.417 in test [1] (first compound 0.8 µM); 0.477 in test [1] (first compound 2.53 µM). Besides, the relative viability in test [1] (first compound 8 µM) was found to be 0.401.

With NCI-H1755, the relative viability with Tosedostat + Bortezomib (first compound 0.02 µM) came to 0.963; with Tosedostat + Bortezomib (first compound 0.06325 µM), 0.896; with Tosedostat + Bortezomib (first compound 0.2 µM) it was 0.928; in the test with Tosedostat + Bortezomib (first compound 0.6325 µM), 0.887; in the test with Tosedostat + Bortezomib (first compound 2 µM), 0.845; in the test with Tosedostat + Pictilisib (first compound 0.02 µM), 0.461. The relative viability with Tosedostat + Pictilisib (first compound 0.06325 µM) came to 0.489; with Tosedostat + Pictilisib (first compound 0.2 µM) it was 0.38; in the test with Tosedostat + Pictilisib (first compound 0.6325 µM), 0.376; with Tosedostat + Pictilisib (first compound 2 µM) it was 0.276; with Tosedostat + Olaparib (first compound 0.02 µM), 0.924; in the test with Tosedostat + Olaparib (first compound 0.06325 µM) it was 0.851. Further, the relative viability with Tosedostat + Olaparib (first compound 0.2 µM) is 0.827; with Tosedostat + Olaparib (first compound 0.6325 µM), 0.857; with Tosedostat + Olaparib (first compound 2 µM), 0.776; in test [1] (first compound 0.253 µM), 0.36; in test [1] (first compound 0.8 µM), 0.438; in test [1] (first compound 2.53 µM), 0.406. Further, the relative viability in test [1] (first compound 8 µM) worked out at 0.373.
